Tests used:
Type in all cases: biochemical
[1] = target: T1, human mu opioid receptor (Homo sapiens, UniProt P35372); assay: [35S]GTP-γ-S binding stimulation, intrinsic activity at mu receptor; details: for intrinsic activity at the mu opioid receptor (in words): compared with DAMGO
T1 construct: expressed in transfected cells; host or cells: CHO cells (membrane homogenates)
Procedure: (§1) Determination of intrinsic activity. Test compounds 2.8 and 2.11 were assayed for their ability to stimulate [35S]GTP-γ-S binding in CHO cell membrane homogenates expressing either the human mu or human delta opioid receptor. The compounds were assayed in triplicate at eight different concentrations. […] The membranes were incubated with one of eight concentrations of positive control or test compound, 0.1 nM [35S]GTP-γ-S and 10 μM GDP in a 50 mM HEPES buffer (pH 7.4) at room temperature for one hour, after which bound radioligand was separated from free via rapid vacuum filtration over GF-B filters using a Brandel Scientific (Gaithersburg, MD) 96-well harvester. Bound radioactivity was determined using a TopCount 12-detector instrument (Packard Instruments) using standard scintillation counting techniques. The data were normalized to samples containing vehicle (basal binding), and a three-parameter logistic curve fit to the data using Prism (version 3.0, GraphPad Software, Inc., San Diego, Calif.). The EC50 and upper asymptote (Emax) were calculated for each compound and the data reported as mean ±SEM.

[2] = target: T2, human kappa opioid receptor (Homo sapiens, UniProt P41145); assay: Apparent affinity (Ke): shift of U69,593 dose response curve in [35S]GTP-γ-S binding
T2 construct: expressed in transfected cells; host or cells: CHO cells (membrane homogenates)
From the text: Determination of apparent affinity (Ke). The ability of a single concentration of test compound to shift the U69,593 (full kappa opioid receptor agonist) dose response curve to the right was used to determine the apparent affinity (Ke) of the test compounds. Assay conditions and analysis of the data were identical to that detailed for the determination of intrinsic activity except that membrane homogenates from CHO cells expressing the human kappa opioid receptor were used, and a single, identical concentration of test compound was included with each assayed concentration of kappa agonist. […]

[3] = target: T3, human delta opioid receptor (Homo sapiens, UniProt P41143); assay: [35S]GTP-γ-S binding stimulation, intrinsic activity at delta receptor; details: for intrinsic activity at the delta opioid receptor (in words): compared with DPDPE; for Emax: read-out: Agonist δ Emax (% DPDPE)
T3 construct: expressed in transfected cells; host or cells: CHO cells (membrane homogenates)
Procedure: as §1

T3 sequence (P41143 whole entry): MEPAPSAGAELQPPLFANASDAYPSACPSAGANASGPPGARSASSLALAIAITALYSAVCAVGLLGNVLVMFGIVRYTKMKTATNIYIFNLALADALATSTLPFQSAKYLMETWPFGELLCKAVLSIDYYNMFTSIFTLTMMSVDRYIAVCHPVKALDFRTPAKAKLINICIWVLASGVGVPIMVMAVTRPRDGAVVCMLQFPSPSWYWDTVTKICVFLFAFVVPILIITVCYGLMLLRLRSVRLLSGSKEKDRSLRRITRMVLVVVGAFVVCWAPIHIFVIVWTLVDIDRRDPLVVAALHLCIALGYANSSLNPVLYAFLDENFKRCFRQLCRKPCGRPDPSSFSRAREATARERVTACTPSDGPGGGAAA
T1 sequence (P35372 whole entry): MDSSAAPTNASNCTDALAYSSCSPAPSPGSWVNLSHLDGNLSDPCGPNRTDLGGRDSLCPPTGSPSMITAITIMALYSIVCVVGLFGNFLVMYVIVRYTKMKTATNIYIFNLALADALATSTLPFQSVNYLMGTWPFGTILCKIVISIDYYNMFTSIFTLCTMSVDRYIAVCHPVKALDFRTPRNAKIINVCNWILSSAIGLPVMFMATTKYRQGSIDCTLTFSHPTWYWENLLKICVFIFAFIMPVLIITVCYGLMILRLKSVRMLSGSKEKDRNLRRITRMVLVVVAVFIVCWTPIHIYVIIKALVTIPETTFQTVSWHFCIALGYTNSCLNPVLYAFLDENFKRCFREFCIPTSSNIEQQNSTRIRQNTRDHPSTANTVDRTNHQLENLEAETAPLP
T2 sequence (P41145 whole entry): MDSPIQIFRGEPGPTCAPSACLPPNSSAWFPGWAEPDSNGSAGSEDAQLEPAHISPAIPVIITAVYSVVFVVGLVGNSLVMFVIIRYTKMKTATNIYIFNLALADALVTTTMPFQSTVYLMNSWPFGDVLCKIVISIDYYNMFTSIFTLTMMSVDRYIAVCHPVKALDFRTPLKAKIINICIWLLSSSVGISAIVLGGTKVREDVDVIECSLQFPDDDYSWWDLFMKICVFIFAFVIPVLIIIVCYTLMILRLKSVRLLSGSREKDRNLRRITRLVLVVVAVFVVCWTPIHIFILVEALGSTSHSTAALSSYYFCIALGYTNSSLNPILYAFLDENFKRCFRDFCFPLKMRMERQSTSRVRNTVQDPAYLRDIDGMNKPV

| SMILES | intrinsic activity at the mu opioid receptor (in words) [1] | Emax ([1]; relative to Emax of DAMGO, mean ±SEM, read-out: Agonist μ Emax (% DAMGO)) [%] | activity at the kappa opioid receptor (in words) [2] | intrinsic activity at the delta opioid receptor (in words) [3] | Emax [3] [%] | maximum stimulation of [35S]GTP-γ-S binding compared with DAMGO (t-test) ([1]; p>0.05) |
| --- | --- | --- | --- | --- | --- | --- |
| C[C@@H]1CN(CCCc2ccccc2)[C@H]2C[C@H](N)C[C@]1(c1cccc(O)c1)C2 [Compound 2.8, (−)-3-[(1 R,4S,5S,7R)-7-Amino-4-methyl-2-(3-phenylpropyl)-2-aza-bicyclo[3.3.1]non-5-yl]phenol] | partial agonist | 74 ± 12 | good inhibitor | potent full agonist | 101 ± 14 |  |
| CNC1CC2CC(c3cccc(O)c3)(C1)C(C)CN2CCCc1ccccc1 (centres unmarked) [Compound 2.11, 5-(3-Hydroxyphenyl)-4-methyl-7-methylamino-2-(3-phenylprop-1-yl)-2-azabicyclo[3.3.1]nononane] | full agonist |  | good inhibitor | partial agonist | 79.7 ± 7.7 | not statistically different |
| C[C@@H](NC(=O)[C@@H](N)Cc1ccc(O)cc1)C(=O)NCC(=O)N(C)[C@@H](Cc1ccccc1)C(=O)NCCO [DAMGO, (D-Ala^2,MePhe^4,Gly-ol^5)enkephalin, reference compound] | full agonist |  |  |  |  |  |

Reference: patent US7399762B2, “Opioid receptor agonist compounds and their use in treatment of pain” (Research Triangle Institute, priority 2005, dated 2008)
